What all share (format): in vivo
One series concerns Tetranychus urticae. Briefly: Tetranychus urticae spray test OP-resistant. Particulars: foliar, 144 h, French bean leaf disks, all instars, after 6 days. How it is done:
Tetranychus urticae—Spray Test OP-Resistant
(§1) Solvent: 78.0 parts by weight acetone • 1.5 parts by weight dimethylformamide
(§2) Emulsifier: alkylarylpolyglycol ether
(§3) To produce a suitable preparation of active compound, 1 part by weight of active compound is mixed with the stated amount of solvents and is diluted with water, containing an emulsifier concentration of 1000 ppm, to the desired concentration. Further test concentrations are prepared by dilution with emulsifier containing water.
French bean (Phaseolus vulgaris) leaf disks infected with all instars of the two spotted spidermite (Tetranychus urticae), are sprayed with a preparation of the active ingredient of the desired concentration.
After 6 days mortality in % is determined. 100% means all spider mites have been killed and 0% means none of the spider mites have been killed.

For series [1], the system named is Ctenocephalides felis. Briefly: whole plant or invertebrate. Particulars: po, 48 h. On the procedure:
Ctenocephalides felis—Oral Test
(§4) Solvent: dimethyl sulfoxide
To produce a suitable preparation of active compound, 10 mg of active compound are dissolved in 0.5 ml solvent, and the concentrate is diluted with cattle blood to the desired concentration.
Approximately 20 adult unfed cat fleas (Ctenocephalides felis) are placed in flea chambers. The blood chamber, sealed with parafilm on the bottom, are filled with cattle blood supplied with compound solution and placed on the gauze covered top of the flea chamber, so that the fleas are able to suck the blood. The blood chamber is heated to 37° C. whereas the flea chamber is kept at room temperature.
After 2 days mortality in % is determined. 100% means all the fleas have been killed; 0% means none of the fleas have been killed.

In series [2] the test system is Nezara viridula. The experiment in a line: Nezara viridula spray test (solvent 78.0 acetone / 1.5 dimethylformamide). Particulars: 96 h, barley plants, larvae, after 4 days. How it is done: (§5) Nezara viridula—Spray Test
(§6) Solvent: 78.0 parts by weight of acetone • • 1.5 parts by weight of dimethylformamide
as §2
(§7) To produce a suitable preparation of active compound, 1 part by weight of active compound is mixed with the stated amount of solvent, and the concentrate is diluted with water, containing an emulsifier concentration of 1000 ppm, to the desired concentration. Further test concentrations are prepared by dilution with emulsifier containing water.
(§8) Barley plants (Hordeum vulgare) infested with larvae of the southern green stink bug (Nezara viridula) are sprayed with a test solution containing the desired concentration of the active ingredient.
(§9) After 4 days mortality in % is determined. 100% means all the stink bugs have been killed; 0% means none of the stink bugs have been killed.

A further series has as its system Diabrotica balteata. Briefly: Diabrotica balteata spray test. As to conditions: 160 μg/well; germinated wheat seeds, larvae; after 7 days. On the procedure:
Diabrotica Balteata—Spray Test
as §6, §2, §7
Soaked wheat seeds (Triticum aestivum) are placed in a multiple well plate filled with agar and some water and are incubated for 1 day to germinate (5 seeds per well). The germinated wheat seeds are sprayed with a test solution containing the desired concentration of the active ingredient. Afterwards each unit is infected with 10-20 larvae of the banded cucumber beetle (Diabrotica balteata).
After 7 days efficacy in % is determined. 100% means all the seedlings have grown up like in the untreated, uninfected control; 0% means none of the seedlings have grown.

Series [3] concerns Nilaparvata lugens. Briefly: Nilaparvata lugens spray test (solvent 52.5 acetone / 7 dimethylformamide). Particulars: 96 h, rice plants, larvae, after 4 days. How it is done:
(§10) Nilaparvata lugens—Spray Test
(§11) Solvent: 52.5 parts by weight of acetone • 7 parts by weight of dimethylformamide
(§12) Emulsifier: alkylaryl polyglycolether
To produce a suitable preparation of active compound, 1 part by weight of active compound is mixed with the stated amount of solvents and is diluted with water, containing an emulsifier concentration of 1000 ppm, to the desired concentration. Further test concentrations are prepared by dilution with emulsifier containing water. Ammonium salt and/or penetration enhancer in a dosage of 1000 ppm are added to the desired concentration if necessary.
Rice plants (Oryza sativa) are treated by being sprayed with the desired concentration of the active compound and are infested with larvae of the brown planthopper (Nilaparvata lugens).
(§13) After 4 days mortality in % is determined. 100% means all planthoppers have been killed and 0% means none of the planthoppers have been killed.

In series [4] the test system is Nilaparvata lugens. Briefly: Nilaparvata lugens spray test (solvent 78.0 acetone / 1.5 dimethylformamide). As to conditions: 96 h, rice plants, after 4 days. On the procedure:
as §10, §6, §2, §3
Rice plants (Oryza sativa) are sprayed with a preparation of the active ingredient of the desired concentration and the plants are infested with the brown planthopper (Nilaparvata lugens).
as §13

Series [5] deals with Nezara viridula. Briefly: Nezara viridula spray test (solvent 52.5 acetone / 7 dimethylformamide). As to conditions: 96 h, barley plants, larvae, after 4 days. How it is done:
as §5, §11, §12
To produce a suitable preparation of active compound, 1 part by weight of active compound is mixed with the stated amount of solvent, and the concentrate is diluted with water, containing an emulsifier concentration of 1000 ppm, to the desired concentration. Ammonium salt and/or penetration enhancer in a dosage of 1000 ppm are added to the desired concentration if necessary.
as §8, §9

Another series deals with Phaedon cochleariae. The experiment in a line: Phaedon cochleariae spray test. As to conditions: foliar, 168 h, Chinese cabbage leaf disks, larvae, after 7 days. How it is done: Phaedon cochleariae—Spray Test
as §6, §2, §3
Chinese cabbage (Brassica pekinensis) leaf disks are sprayed with a preparation of the active ingredient of the desired concentration. Once dry, the leaf disks are infested with mustard beetle larvae (Phaedon cochleariae).
After 7 days mortality in % is determined. 100% means all beetle larvae have been killed and 0% means none of the beetle larvae have been killed.

The subject of a further series is Myzus persicae. Briefly: Myzus persicae spray test. Particulars: foliar, Chinese cabbage leaf disks, all instars, after 5-6 days. On the procedure: Myzus persicae—Spray Test
as §1, §2, §3
Chinese cabbage (Brassica pekinensis) leaf disks infected with all instars of the green peach aphid (Myzus persicae), are sprayed with a preparation of the active ingredient of the desired concentration.
After 5-6 days mortality in % is determined. 100% means all aphids have been killed and 0% means none of the aphids have been killed.

The next series concerns Lucilia cuprina. The experiment in a line: whole plant or invertebrate. Particulars: 48 h. On the procedure:
as §4
10 mg active compound are dissolved in 0.5 ml Dimethylsulfoxid. Serial dilutions are made to obtain the desired rates.
Approximately 20 1st instar larvae of the Australian sheep blowfly (Lucilia cuprina) are transferred into a test tube containing minced horse meat and compound solution of the desired concentration.
After 2 days mortality in % is determined. 100% means all the larvae have been killed; 0% means none of the larvae have been killed.

Another series concerns Meloidogyne incognita. Briefly: Meloidogyne incognita test. As to conditions: 20 ppm; eggs and larvae, salad seeds in sand; after 14 days. How it is done:
Meloidogyne incognita—Test
Solvent: 125.0 parts by weight of acetone
To produce a suitable preparation of active compound, 1 part by weight of active compound is mixed with the stated amount of solvent, and the concentrate is diluted with water to the desired concentration.
Vessels are filled with sand, a solution of the active ingredient, a suspension containing eggs and larvae of the southern root-knot nematode (Meloidogyne incognita) and salad seeds. The salad seeds germinate and the seedlings grow. Galls develop in the roots.
After 14 days the nematicidal activity is determined on the basis of the percentage of gall formation. 100% means no galls were found and 0% means the number of galls found on the roots of the treated plants was equal to that in untreated control plants.

The subject of a further series is Boophilus microplus. The experiment in a line: Boophilus microplus injection test. As to conditions: 20 μg/animal injected; adult engorged female ticks; after 7 days. How it is done:
Boophilus microplus—Injection Test
as §4
To produce a suitable preparation of active compound, 10 mg of active compound are dissolved in 0.5 ml solvent, and the concentrate is diluted with solvent to the desired concentration.
Five adult engorged female ticks (Boophilus microplus) are injected with 1 μl compound solution into the abdomen. The ticks are transferred into replica plates and incubated in a climate chamber.
After 7 days egg deposition of fertile eggs is monitored. Eggs where fertility is not visible are stored in a climate chamber till hatching after about 42 days. An efficacy of 100% means all eggs are infertile; 0% means all eggs are fertile.

The test system of the next series is Spodoptera frugiperda. Briefly: Spodoptera frugiperda spray test. As to conditions: 168 h, maize leaf sections, larvae, after 7 days. On the procedure:
Spodontera frugiperda—Spray Test
as §1, §2, §3
Maize (Zea mays) leaf sections are sprayed with a preparation of the active ingredient of the desired concentration. Once dry, the leaf sections are infested with fall armyworm larvae (Spodoptera frugiperda).
After 7 days mortality in % is determined. 100% means all caterpillars have been killed and 0% means none of the caterpillars have been killed.

In another series the test system is Musca domestica. Briefly: Musca domestica test. On the procedure: as §4
To produce a suitable preparation of active compound, 10 mg of active compound are dissolved in 0.5 ml solvent, and the concentrate is diluted with water to the desired concentration.
10 adult house flies (Musca domestica) are transferred into a container, containing a sponge soaked with a mixture of sugar solution and compound solution of the desired concentration.
After 2 days mortality in % is determined. 100% means all the flies have been killed; 0% means none of the flies have been killed.

The test system of another series is Plutella xylostella. Briefly: Plutella xylostella spray test. Particulars: 100 ppm; cabbage leaves, larvae; after 7 days. On the procedure: Plutella xylostella—Spray Test
Solvent: 14 parts by weight of dimethylformamide
Emulsifier: alkylaryl polyglycol ether
To produce a suitable preparation of active compound, 1 part by weight of active compound is mixed with the stated amount of solvent and is diluted with water, containing an emulsifier concentration of 1000 ppm, to the desired concentration. Further test concentrations are prepared by dilution with emulsifier containing water.
Cabbage leaves (Brassica oleracea) are treated by being sprayed with the preparation of the active compound of the desired concentration and are infested with larvae of the diamondback moth (Plutella xylostella).
After 7 days, mortality in % is determined. 100% means all the caterpillars have been killed and 0% means none of the caterpillars have been killed.

The subject of series [6] is Ctenocephalides felis. Briefly: Ctenocephalides felis in-vitro contact test, adult cat flea. Particulars: 5 μg/cm^2 (=500 g/ha), after 48 hours. On the procedure:
Ctenocephalides felis—In-Vitro Contact Tests Adult Cat Flea
9 mg compound is solved in 1 ml acetone and diluted with acetone to the desired concentration. 250 μl of the test solution is filled in 25 ml glass test tubes and homogeneously distributed on the inner walls by rotation and tilting on a shaking device (2 h at 30 rpm). With a compound concentration of 900 ppm, an inner surface of 44.7 cm^2 and a homogeneous distribution, a dose of 5 μg/cm^2 is achieved.
After the solvent has evaporated, each test tube is filled with 5-10 adult cat fleas (Ctenocephalides felis), closed with a perforated lid and incubated in a lying position at room temperature and relative humidity. After 48 hours efficacy is determined. The fleas are patted on the ground of the tubes and are incubated on a heating plate at 45-50° C. for at most 5 minutes. Immotile or uncoordinated moving fleas, which are not able to escape the heat by climbing upwards, are marked as dead or moribund.
An efficacy of 100% means all fleas are dead or moribund; 0% means no fleas are dead or moribund.

We go through 6 compounds from US10271552B2, “Heterocyclic compounds as pesticides” (Bayer CropScience Aktiengesellschaft, priority 2015, dated 2019).

SMILES strings stand for the structures.

Regarding `O=C(Nc1nc(-c2ccccc2C(F)(F)F)ns1)c1cccnc1C(F)(F)F` [Compound I-1-20, 2-(trifluoromethyl)-N-{3-[2-(trifluoromethyl)phenyl]-1,2,4-thiadiazol-5-yl}nicotinamide], the mortality at 500 g/ha with Tetranychus urticae was at least 70%; with Nezara viridula [2], at least 90%; in the series on Nilaparvata lugens [3], at least 80%; in the series on Nilaparvata lugens [4], at least 70%; in the series on Nezara viridula [5], at least 90%; with Phaedon cochleariae it was at least 80%. Also, in the series on Myzus persicae, the mortality at 500 g/ha is at least 70%. The mortality at 100 ppm with Ctenocephalides felis [1] and in the series with Lucilia cuprina was 100% each time. For the same compound, the “efficacy (seedling growth)” value in the series on Diabrotica balteata is 100%. The “nematicidal activity (gall formation)” value in the series with Meloidogyne incognita came to 100%. In addition, in the series with Boophilus microplus, the “efficacy (infertile eggs)” value was found to be 100%.
For the compound `O=C(Nc1nc(-c2cccc(C(F)(F)F)c2Cl)ns1)c1cccnc1C(F)(F)F` [Compound I-1-62, N-{3-[2-Chloro-3-(trifluoromethyl)phenyl]-1,2,4-thiadiazol-5-yl}-2-(trifluoromethyl)nicotinamide], the mortality at 500 g/ha is at least 70% with Tetranychus urticae; at least 90% in the series on Nezara viridula [2]; at least 80% in the series with Nilaparvata lugens [3]; at least 90% in the series on Nezara viridula [5]; at least 80% with Spodoptera frugiperda; at least 80% with Phaedon cochleariae. The same compound displayed a mortality at 500 g/ha with Myzus persicae of at least 70%.
`O=C(Nc1nc(-c2ccccc2F)ns1)c1cccnc1C(F)(F)F` [Compound I-1-57]: the “efficacy (seedling growth)” value in the series with Diabrotica balteata amounted to 100%. The compound also had a mortality with Musca domestica (100 ppm, adult house flies, after 2 days) of 100%. In the series with Boophilus microplus, the “efficacy (infertile eggs)” value was 100%.
As to `O=C(Nc1nc(-c2c(F)cccc2F)ns1)c1c(F)cccc1C(F)(F)F` [Compound I-1-12], the “nematicidal activity (gall formation)” value in the series on Meloidogyne incognita came to 100%. Also, in the series on Boophilus microplus, the “efficacy (infertile eggs)” value is 100%. Moreover, the mortality in the series on Plutella xylostella worked out at 100%.
On to `O=C(c1cccnc1C(F)(F)F)N(C(=O)c1cccnc1C(F)(F)F)c1nc(-c2c(F)cccc2F)ns1` [Compound I-1-31, N-[3-(2,6-Difluorophenyl)-1,2,4-thiadiazol-5-yl]-2-(trifluoromethyl)-N-{[2-(trifluoromethyl)pyridin-3-yl]carbonyl}nicotinamide], for which the mortality at 500 g/ha is at least 70% in the series on Tetranychus urticae, at least 90% with Nezara viridula [5] and at least 80% in the series with Phaedon cochleariae. For the same compound, the “efficacy (fleas dead or moribund)” value in the series on Ctenocephalides felis [6] amounted to 100%. The mortality at 100 ppm was 100% in the series on Ctenocephalides felis [1]; 80% in the series with Musca domestica (Musca domestica, 48 h); 100% in the series on Lucilia cuprina. Moreover, in the series with Boophilus microplus, the “efficacy (infertile eggs)” value was 100%.
As for `O=C(Nc1nc(-c2ccccc2OC(F)(F)F)ns1)c1cccnc1C(F)(F)F` [Compound I-1-55, N-{3-[2-(Trifluoromethoxy)phenyl]-1,2,4-thiadiazol-5-yl}-2-(trifluoromethyl)nicotinamide], the mortality at 500 g/ha is at least 70% with Tetranychus urticae; at least 90% in the series with Nezara viridula [2]; at least 90% with Nezara viridula [5]; at least 80% in the series on Spodoptera frugiperda; at least 80% with Phaedon cochleariae; at least 70% in the series on Myzus persicae. Moreover, the mortality at 100 ppm with Ctenocephalides felis [1] and with Lucilia cuprina was 100% each time. In the series on Diabrotica balteata, the “efficacy (seedling growth)” value is 100%. Moreover, the “efficacy (infertile eggs)” value in the series on Boophilus microplus is 100%.

What is called mortality is the share of the test organisms that died.
